Test results: PMC5668088, “A phase I clinical trial of binimetinib in combination with FOLFOX in patients with advanced metastatic colorectal cancer who failed prior standard therapy” (Oncotarget, 2017)
Where two headings read alike, the source gives them in different places.

Experiments:
[1] = human, in vivo, po
Method: A standard 3 + 3 dose-escalation design was followed using a continuous and intermittent oral binimetinib dosing schedule combined with fixed-dose FOLFOX. […] The continuous binimetinib dosing schedule was comprised of 2 dosing levels: 30 mg orally twice daily and 45 mg orally twice daily continuously starting on day 1 with FOLFOX, repeated every 2 weeks. The MTD of binimetinib continuous daily dosing was explored in an additional 6-patient cohort to investigate potential FOLFOX-binimetinib pharmacokinetic interactions. In addition, the MTD dose of binimetinib was explored further with FOLFOX in an intermittent sequential schedule in order to minimize treatment toxicity, with binimetinib twice daily on days 1–5 with FOLFOX on days 6–7 every 2 weeks. The starting dose of binimetinib on the intermittent arm was the MTD dose level identified on the continuous dosing schedule. Following standard dose-escalation rules, the maximum tolerated dose (MTD) for either schedule was defined as the highest dose level tested in which no more than 1 of 6 patients experienced a dose-limiting toxicity (DLT) in the dose-escalation phase. […] No intra-patient dosing escalations were allowed. No escalation beyond the previous binimetinib monotherapy recommended dose of 45 mg PO BID was allowed. […]

[2] = system: MEK1/2; settings: preclinical; cited from earlier work
[3] = set-up: method as in ref 19–24 = [19]; 19 Sosman JA Kittaneh M Lolkema MP Postow MA Schwartz G Franklin C Matano A Bhansali S Parasuraman S Kim K A phase 1b/2 study of LEE011 in combination with binimetinib (MEK162) in patients with NRAS-m || [20]; 20 Juric D Soria JC Sharma S Banerji U Azaro A Desai J A phase Ib open-label, multicenter, dose-escalation and-expansion study of orally administered binimetinib (MEK162) plus BYL719 in adult patients || [21]; 21 Chi P Qin L D’Angelo SP Dickson MA Gounder MM Keohan ML Shoushtari AN Condy MM Konen T Fruauff A DeMatteo RP Singer S Hwang S A phase Ib/II study of MEK162 (binimetinib [BINI]) in combination with || [22]; 22 Van Herpen C Postow MA Carlino MS Kalkavan H Weise A Amaria RN De Vos F Carvajal RD Matano A Bhansali S Lam L Yerramilli-Rao P Sosman JA A phase 1b/2 study of ribociclib (LEE011; CDK4/6 inhibitor) || [23]; 23 Dummer R Sandhu S Hassel JC Muñoz E Berking C Gesierich A Ascierto PA Esposito O Carter K Antona V Radhakrishnan R Cui X Caponigro G LOGIC2: Phase 2,multi-center, open-label study of sequential enc; settings: oral twice daily, continuous dosing; five phase Ib/II trials; cited from earlier work
[4] = set-up: method as in ref 25 = [25]; 25 Grisham RN Gordon MS Harb WA Aghajanian C McMeekin DS McKinley K Anderson L Chavira R Christy-Bittel J Barrett E Moore KN A phase Ib dose-escalation study of binimetinib (MEK162) in combination wit; settings: orally twice daily, cited from earlier work
[5] = system: advanced solid tumors; settings: twice daily, cited from earlier work
[6] = cited from earlier work
[7] = 5-FU plasma pharmacokinetics without and with binimetinib (LC-MS/MS)
Method: Fluorouracil levels in plasma were determined using an LC-MS/MS analytical assay also in the APCF with LLOQ of 3 ng/mL from a 200 μL aliquot of plasma.

[8] = system: previously-treated mCRC; set-up: method as in ref 34 = [34]; 34 Bendell J Won KT Ean CC Yung-Jue B Lee C Desai J Lewin J Wallin J Das Thakur M Mwawasi G Cha E Infante J Safety and efficacy of cobimetinib (cobi) and atezolizumab (atezo) in a Phase 1b study of me; settings: escalating doses of cobimetinib in combination with atezolizumab; 23 patients (4 responders); cited from earlier work
[9] = for Oxaliplatin T1/2, Avg STD: Table 4
[10] = Pt#1, Cycle 1 (without binimetinib)
[11] = Pt#2, Cycle 1 (without binimetinib)
[12] = Pt#2, Cycle 2 (with binimetinib)
[13] = Pt#3, Cycle 1 (without binimetinib)
[14] = Pt#3, Cycle 2 (with binimetinib)
[15] = Pt#4, Cycle 1 (without binimetinib)
[16] = Pt#4, Cycle 2 (with binimetinib)
[17] = Pt#5, Cycle 1 (without binimetinib)
[18] = Pt#5, Cycle 2 (with binimetinib)
[19] = Pt#6, Cycle 2 (with binimetinib)

SMILES: Cn1cnc2c(F)c(Nc3ccc(Br)cc3F)c(C(=O)NOCCO)cc21 [binimetinib]
- MTD of binimetinib in combination with FOLFOX [1]: 45 mg
- Inhibition of MEK and downstream phosphorylated ERK (pERK) [2]: nanomolar range
- MTD or RP2D of binimetinib in combination with various targeted agents [3]: 45 mg
- RP2D of binimetinib combined with paclitaxel ([4]; continuous dosing, paclitaxel 80 mg/m^2 weekly 3 out of 4 weeks): 30 mg
- RP2D of binimetinib combined with paclitaxel ([4]; intermittent dosing (days 1–5 weekly for 3 out of 4 weeks)): 45 mg
- Recommended phase II dose (RP2D) of oral binimetinib ([5]; due to recurrent DLTs of retinal events): 45 mg
- MTD of single-agent oral binimetinib ([5]; pretreated advanced solid tumors, first dose-escalation phase I study): 60 mg
- Patients with atrial fibrillation ([6]; in vivo): 1
- Patients with irregular heart rate ([6]; in vivo): 1
- Patients with grade 1–2 retinal adverse events ([6]; phase II trial, binimetinib 45 mg twice daily, NRAS- or BRAF-mutated advanced melanomas): 18%

SMILES: O=c1[nH]cc(F)c(=O)[nH]1 [5-FU, Fluorouracil]
- 5-FU steady-state level, Avg STD ([7]; Cycle 2 (with binimetinib 45 mg BID continuous), plasma, PK cohort): 597.6 ± 204.5 ng/mL
- 5-FU steady-state level [7, 10]: 353.0 ng/mL
- 5-FU steady-state level ([7]; Pt#1, Cycle 2 (with binimetinib)): 293.1 ng/mL
- 5-FU steady-state level [7, 11]: 524.0 ng/mL
- 5-FU steady-state level [7, 12]: 480.5 ng/mL
- 5-FU steady-state level [7, 13]: 627.5 ng/mL
- 5-FU steady-state level [7, 14]: 718.0 ng/mL
- 5-FU steady-state level [7, 15]: 427.5 ng/mL
- 5-FU steady-state level [7, 16]: 770.5 ng/mL
- 5-FU steady-state level [7, 17]: 621.0 ng/mL
- 5-FU steady-state level [7, 18]: 726.0 ng/mL
- 5-FU steady-state level ([7]; Pt#6, Cycle 1 (without binimetinib)): 428.0 ng/mL
- Difference in 5-FU PK with vs without binimetinib ([7]; in vivo): no significant differences

SMILES: O=C(c1ccc(F)c(F)c1Nc1ccc(I)cc1F)N1CC(O)([C@@H]2CCCCN2)C1 [cobimetinib]
- Partial responses [8]: 17%

SMILES: O=C1[O][Pt]2([NH][C@@H]3CCCC[C@H]3[NH]2)[O]C1=O [Oxaliplatin]
- Oxaliplatin AUC, Avg STD ([9]; Cycle 1 (without binimetinib)): 26580.5 4844.8 μg/L X hr
- Oxaliplatin T1/2, Avg STD ([9]; Cycle 1 (without binimetinib)): 37.1 11.7 36
- Oxaliplatin AUC, Avg STD ([9]; Cycle 1 (without binimetinib), listed as oxaliplatin): 26580.5 ± 4844.8 μg/L X hr
- Oxaliplatin AUC, Avg STD ([9]; Cycle 2 (with binimetinib)): 32190.9 11861.2 μg/L X hr
- Oxaliplatin T1/2, Avg STD ([9]; Cycle 2 (with binimetinib)): 38.8 22.6 36
- Oxaliplatin AUC, Avg STD ([9]; Cycle 2 (with binimetinib), listed as oxaliplatin): 32190.9 ± 11861.2 μg/L X hr
- Oxaliplatin AUC [9, 10]: 28618.0 μg/L X hr
- Oxaliplatin Cmax [9, 10]: 536.0 ng/mL
- Oxaliplatin AUC [9, 11]: 31146.9 μg/L X hr
- Oxaliplatin Cmax [9, 11]: 780.8 ng/mL
- Oxaliplatin AUC [9, 12]: 51036.0 μg/L X hr
- Oxaliplatin Cmax [9, 12]: 590.0 ng/mL
- Oxaliplatin AUC [9, 13]: 25757.7 μg/L X hr
- Oxaliplatin Cmax [9, 13]: 686.5 ng/mL
- Oxaliplatin AUC [9, 14]: 33953.4 μg/L X hr
- Oxaliplatin Cmax [9, 14]: 726.5 ng/mL
- Oxaliplatin AUC [9, 15]: 18615.5 μg/L X hr
- Oxaliplatin Cmax [9, 15]: 601.5 ng/mL
- Oxaliplatin AUC [9, 16]: 25138.7 μg/L X hr
- Oxaliplatin Cmax [9, 16]: 748.5 ng/mL
- Oxaliplatin AUC [9, 17]: 28764.2 μg/L X hr
- Oxaliplatin Cmax [9, 17]: 389.3 ng/mL
- Oxaliplatin AUC [9, 18]: 19805.3 μg/L X hr
- Oxaliplatin Cmax [9, 18]: 583.5 ng/mL
- Oxaliplatin AUC [9, 19]: 31020.9 μg/L X hr
- Oxaliplatin Cmax [9, 19]: 671.0 ng/mL
- Oxaliplatin average T1/2 ([9]; with binimetinib): 38.8 ± 22.6 h
- Oxaliplatin average T1/2 ([9]; without binimetinib): 37.1 ± 11.7 h
